In patent publication US20260158031A1, “AROMATIC HETEROCYCLIC COMPOUND, PHARMACEUTICAL COMPOSITION CONTAINING THE SAME, AND USE THEREOF” (HANG ZHOU YUHONG PHARMATECH CO., LTD., priority 2021, published 2026):

Legend:
JAK3 kinase = biological target: T1, JAK3 kinase (Homo sapiens, UniProt P52333); test: Mobility shift assay, in vitro JAK3 kinase inhibitory activity; format: biochemical
T1 sequence (P52333 1-1124): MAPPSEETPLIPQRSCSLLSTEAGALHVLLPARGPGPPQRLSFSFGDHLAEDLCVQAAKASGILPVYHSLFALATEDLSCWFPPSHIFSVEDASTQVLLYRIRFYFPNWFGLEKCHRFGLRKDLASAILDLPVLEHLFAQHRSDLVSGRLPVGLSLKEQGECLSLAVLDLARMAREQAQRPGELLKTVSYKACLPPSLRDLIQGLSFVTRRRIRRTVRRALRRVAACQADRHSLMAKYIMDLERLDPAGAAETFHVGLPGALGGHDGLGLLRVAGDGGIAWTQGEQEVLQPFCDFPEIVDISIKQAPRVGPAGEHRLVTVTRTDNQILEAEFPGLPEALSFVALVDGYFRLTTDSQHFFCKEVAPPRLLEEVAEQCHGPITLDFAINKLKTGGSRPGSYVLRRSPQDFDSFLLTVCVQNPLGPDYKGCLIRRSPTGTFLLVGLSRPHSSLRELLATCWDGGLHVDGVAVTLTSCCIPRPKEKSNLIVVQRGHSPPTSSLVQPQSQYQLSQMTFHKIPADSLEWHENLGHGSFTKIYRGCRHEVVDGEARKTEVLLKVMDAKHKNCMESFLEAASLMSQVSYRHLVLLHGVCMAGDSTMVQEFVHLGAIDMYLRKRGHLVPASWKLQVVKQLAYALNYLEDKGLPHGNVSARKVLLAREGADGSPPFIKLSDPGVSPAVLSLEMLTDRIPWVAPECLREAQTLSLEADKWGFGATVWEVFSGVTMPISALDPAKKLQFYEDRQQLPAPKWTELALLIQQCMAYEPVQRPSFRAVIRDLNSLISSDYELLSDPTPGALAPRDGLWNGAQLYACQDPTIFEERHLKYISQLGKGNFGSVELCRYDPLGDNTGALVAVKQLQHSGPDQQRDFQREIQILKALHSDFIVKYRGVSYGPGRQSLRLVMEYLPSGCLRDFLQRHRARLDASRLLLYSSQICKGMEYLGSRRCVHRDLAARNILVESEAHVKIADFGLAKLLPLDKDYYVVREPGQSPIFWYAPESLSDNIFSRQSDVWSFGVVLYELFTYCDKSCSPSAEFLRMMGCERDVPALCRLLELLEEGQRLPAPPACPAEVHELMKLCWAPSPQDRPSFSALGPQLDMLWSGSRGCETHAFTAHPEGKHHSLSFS
Protocol: A Mobility shift assay was adopted to detect compounds to be tested (see list below) for in vitro inhibitory activity on the enzyme activity of JAK3 kinase.
The compound was dissolved in 100% DMSO to formulate a 10 mM stock solution, which was stored in a −20° C. refrigerator with protection from light.
The compounds were diluted with gradients into solutions with a final concentration of 100 times in a 384-well plate. Then 250 nL was transferred to a 384 reaction plate with Echo550 for later use. 250 nL of 100% DMSO was added into the negative control well and the positive control well respectively. • (3) A kinase solution with a final concentration of 2.5 times was formulated with the 1× Kinase buffer. • (4) The compound wells and the positive control wells were added with 10 μL of the kinase solution with the final concentration of 2.5 times respectively; the negative control wells were added with 10 μL of the 1× Kinase buffer. • (5) The wells were centrifuged at 1,000 rpm for 30 seconds, mixed well by shaking, and then incubated at room temperature for 10 minutes. • (6) A mixed solution of ATP and Kinase substrate 22 with a final concentration of 25/15 times was formulated with a 1× Kinase buffer. • (7) The compound wells, positive control wells and negative control wells of the 384 reaction plate were respectively added with 15 μL of a mixed solution of ATP and the substrate at the final concentration of 25/15 times to start the reaction. • (8) The 384-well plate was centrifuged at 1,000 rpm for 30 seconds, mixed well by shaking, and then incubated at room temperature for 30 minutes. • (9) 30 μL of a detection termination solution was added to stop the kinase reaction, centrifuged at 1,000 rpm for 30 seconds, and mixed well by shaking. • (10) The conversion rate was read with Caliper EZ Reader.
% Inhibition=(Conversion %_max−Conversion %_sample)/(Conversion %_max−Conversion %_min)×100 (1) Calculation Equation
Among them: Conversion %_sample was the conversion rate reading of the sample; Conversion %_min was the mean value of the negative control wells, representing the conversion rate reading of the wells without enzyme activity; Conversion % max was the mean value of the positive control wells, representing the conversion rate reading of the wells without compound inhibition; and % Inhibition represented the percentage inhibition rate.
• by taking the log value of concentration as the X axis and taking the percent inhibition rate as the Y axis, a dose-response curve is fitted by adopting the log (inhibitor) vs. response-Variable slope of the analysis software GraphPad Prism 5, so as to obtain the IC50 value of each compound on the enzyme activity. The calculation equation was Y=Bottom+ (Top−Bottom)/(1+10^((Log IC50−X)*HillSlope)).

[1] = test system: p-STAT5 under stimulation with IL-15 in PBMCs; test: IL-15 stimulated hPBMC p-STAT5 ELISA; format: cell-based; settings: Homo sapiens, PBMC, 45 min compound, 30 min IL-15, ELISA
Protocol: Based on the mechanism of the JAK-STAT pathway, the cytokine IL-15 was adopted to stimulate hPBMC cells, and the downstream STAT5 phosphorylation level was taken as a detection indicator to evaluate the effect of the compound on the JAK-STAT pathway.
• 1. Seeding plate for PBMC cell counting: 90 μL of PBMCs were seeded in a 96-well plate (PBMC cell density: 80,000/well). • 2. Treatment of compound to be tested: after the cells were seeded on the plate, administration treatment was performed immediately. The drug to be tested was 5 μL/well (with final concentration of 1, 0.5, 0.1, 0.05, 0.01, and 0.005 μM), and the plate was incubated in a 37° C. incubator for 45 min. • 3. Stimulation with cytokine IL-15: the cells were stimulated with 5 μL of IL-15 and incubated at 37° C. for 30 min. • 4. Protein sample collection: the cells were collected in a centrifuge tube and centrifuged for 5 min. The supernatant was discarded after the centrifuging, and the cells were lysed with 1× Cell Extraction Buffer PTR. • 5. p-STAT5 detection: detection was conducted according to the requirements of a ELISA kit.
Experimental results: IC50 values of compounds on p-STAT5 under stimulation with IL-15 in PBMCs

SRBC mouse model = test: SRBC-induced delayed type hypersensitivity (DTH) in mice; format: in vivo; settings: male Balb/c mice, 100 mg/kg by gavage once a day, day 0 to day 6, FIG. 1
Protocol: PF-06651600 was used as a positive control compound.
Drug preparation: the compound was weighed and added with a 0.5% CMC-Na solution to prepare a drug suspension (with an administration dose of 10 mg/mL).
Induction of delayed type hypersensitivity (DTH) and administration: 30 male Balb/c mice were weighed and randomly divided into 6 groups according to body weight, with 5 mice in each group. The experimental period lasted for 7 days in total. On day 0, the mice were subcutaneously injected with sheep red blood cells (SRBCs) for sensitization. From day 0, the mice were administrated with 100 mg/kg by gavage (once a day) until day 6. On day 6, SRBCs were injected into the right hind foot pad of the mice for excitation. On day 7 of the experiment, measurements were conducted, photographs were taken, and the experiment was ended.
Pharmacodynamic detection indicators of disease models: the detection and observation indicators were the degree of redness and swelling and detected thicknesses of paw pads of the mice in the model group as induced by SRBC. The thickness of the right paw was measured as the baseline before the SRBC injection excitation on day 6. At the end of the experiment […], the thickness of the right paw was measured again, and the difference in thickness of the paw before and after the second injection was calculated.
Statistical processing: experimental data was expressed as mean±standard deviation (Mean±SD). All data was statistically analyzed using a T-test. P<0.05 was considered to be statistically different.

[2] = test system: collagen-induced mouse arthritis model; test: Collagen-induced mouse arthritis model (mCIA); format: in vivo, DBA/1J mice; settings: female DBA/1J CIA mice, 50 mg/kg once a day, FIG. 2; for arthritis scores: compared to the model group
Excerpt: Objective of Experiment: to test the immunosuppressive activity of YZ001052 in a mCIA model. PF-06651600 was used as a positive control compound.
Complete and incomplete Freund's adjuvants were mixed with a chicken type II collagen solution in equal proportions to form an emulsifier. Except for the blank control group, on Day 0, a mixture of a complete Freund's adjuvant and the chicken type II collagen solution was subcutaneously injected into the tail roots and thigh roots of the mice, with 100 μL being injected subcutaneously at the tail root of each mouse; and 50 μL being injected subcutaneously at each of the two thigh roots of each mouse (primary immunization). On day 21, the mice were subcutaneously injected with 200 μL of a mixture of an incomplete Freund's adjuvant and the chicken type II collagen solution as a booster injection (second immunization). […] Measurement of paw thickness: the thicknesses of the left and right hind feet of the mice were measured with a vernier caliper to serve as the paw swelling degree and recorded, and the detection frequency was once every 3 days.

[3] = test system: radiation-induced lung injury mouse model; test: Mouse model of acute radiation-induced lung injury; format: in vivo; settings: female C57BL/6 mice, 22.5 Gy whole lung irradiation, 30 mg/kg q.d, 3 weeks after modeling
Protocol: 18 female C57BL/6 mice were randomly divided into 3 groups, namely a blank control group, a group treated with irradiation alone, and a group intervened with irradiation+drug YZ001052 (30 mg/kg q.d), with 6 mice in each group.
The mice were anesthetized by intraperitoneal injection of 1% pentobarbital sodium, and were subjected to a single whole lung irradiation at 22.5 Gy, with 220 KV of X-rays by using a small animal radiation research platform (SARRP). After the irradiation was completed, the mice were fed routinely.
3 weeks after modeling, the mice were anesthetized and dissected. The lung tissue was exposed, the left lung was ligated, an open tracheotomy was performed, the lung was lavaged with cold PBS, and the bronchoalveolar lavage fluid (BALF) was collected and subjected to refrigerated centrifugation at 4° C.
The supernatant was collected, and detected for the content of the inflammatory factor TNF-α by ELISA.
The cell pellet of the alveolar lavage fluid was resuspended in 200 μL PBS and used for counting of white blood cells (WBCs).

[4] = test system: DSS-induced mouse inflammatory bowel disease model; test: DSS-induced mouse inflammatory bowel disease model; format: in vivo; settings: female C57BL/6 mice, 5% DSS, 50 mg/kg once a day, day 8, compared with model group, FIG. 3
Protocol: Objective of Experiment: to test the immunosuppressive activity of YZ001052 in a DSS-induced mouse inflammatory bowel disease model. PF-06651600 was used as a positive control compound.
50 g of DSS was weighed, added with 1,000 mL of sterile water, formulated into a 5% DSS solution, and filtered with a 0.22 μm filter membrane. From day 0, the blank group was given drinking water without DSS, and the other experimental groups were given drinking water containing 5% DSS. All mice were sacrificed on day 8. After the experiment was ended, the colorectum was collected, and photographed, and its length was measured for statistical analysis.

JAK2 = JAK2 (Homo sapiens, UniProt O60674); test: Kinase selectivity experiment, mobility shift assay, JAK2; format: biochemical; settings: Example 137
Protocol: (§1) The compounds were diluted with gradients into solutions with a final concentration of 100 times in a 384-well plate. Then 250 nL was transferred to a 384 reaction plate with Echo550 for later use. […]

JAK1 = JAK1 (Homo sapiens, UniProt P23458); test: Kinase selectivity experiment, mobility shift assay, JAK1; format: biochemical; settings: Example 137
Protocol: as §1

TYK2 = TYK2 (Homo sapiens, UniProt P29597); test: Kinase selectivity experiment, mobility shift assay, TYK2; format: biochemical; settings: Example 137
Protocol: as §1

[5] = mobility shift assay, Example 136

JAK2, sequence (O60674 whole entry, species assumed): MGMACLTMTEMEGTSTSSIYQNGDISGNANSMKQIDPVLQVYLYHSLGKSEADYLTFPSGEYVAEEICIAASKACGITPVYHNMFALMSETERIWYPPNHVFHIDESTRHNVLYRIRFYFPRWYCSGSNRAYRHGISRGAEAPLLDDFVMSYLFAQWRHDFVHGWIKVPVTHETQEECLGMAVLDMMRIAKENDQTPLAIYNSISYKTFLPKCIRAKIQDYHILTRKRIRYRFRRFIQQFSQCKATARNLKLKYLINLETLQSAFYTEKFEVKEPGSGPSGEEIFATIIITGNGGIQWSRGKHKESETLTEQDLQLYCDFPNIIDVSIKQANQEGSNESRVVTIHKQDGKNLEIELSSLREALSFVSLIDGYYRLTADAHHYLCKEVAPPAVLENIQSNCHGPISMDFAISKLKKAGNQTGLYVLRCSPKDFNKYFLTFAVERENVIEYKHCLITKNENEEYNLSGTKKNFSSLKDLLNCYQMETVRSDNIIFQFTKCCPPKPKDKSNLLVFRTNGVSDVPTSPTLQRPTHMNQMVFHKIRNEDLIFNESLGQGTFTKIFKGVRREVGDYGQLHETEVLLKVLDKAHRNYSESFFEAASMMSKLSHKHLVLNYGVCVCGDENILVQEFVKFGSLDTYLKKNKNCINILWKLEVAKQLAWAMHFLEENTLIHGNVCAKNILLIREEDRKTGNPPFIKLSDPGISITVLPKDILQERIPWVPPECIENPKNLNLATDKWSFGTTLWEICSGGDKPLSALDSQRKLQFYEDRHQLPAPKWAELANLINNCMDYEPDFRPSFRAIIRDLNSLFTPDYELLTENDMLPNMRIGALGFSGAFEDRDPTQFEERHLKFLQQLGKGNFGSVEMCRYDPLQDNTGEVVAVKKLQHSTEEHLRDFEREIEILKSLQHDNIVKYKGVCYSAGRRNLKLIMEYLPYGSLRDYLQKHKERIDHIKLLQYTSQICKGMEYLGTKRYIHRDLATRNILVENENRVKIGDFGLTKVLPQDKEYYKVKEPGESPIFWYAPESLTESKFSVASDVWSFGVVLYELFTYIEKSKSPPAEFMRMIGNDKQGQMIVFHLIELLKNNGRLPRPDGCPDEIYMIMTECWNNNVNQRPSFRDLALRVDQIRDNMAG
TYK2, sequence (P29597 whole entry, species assumed): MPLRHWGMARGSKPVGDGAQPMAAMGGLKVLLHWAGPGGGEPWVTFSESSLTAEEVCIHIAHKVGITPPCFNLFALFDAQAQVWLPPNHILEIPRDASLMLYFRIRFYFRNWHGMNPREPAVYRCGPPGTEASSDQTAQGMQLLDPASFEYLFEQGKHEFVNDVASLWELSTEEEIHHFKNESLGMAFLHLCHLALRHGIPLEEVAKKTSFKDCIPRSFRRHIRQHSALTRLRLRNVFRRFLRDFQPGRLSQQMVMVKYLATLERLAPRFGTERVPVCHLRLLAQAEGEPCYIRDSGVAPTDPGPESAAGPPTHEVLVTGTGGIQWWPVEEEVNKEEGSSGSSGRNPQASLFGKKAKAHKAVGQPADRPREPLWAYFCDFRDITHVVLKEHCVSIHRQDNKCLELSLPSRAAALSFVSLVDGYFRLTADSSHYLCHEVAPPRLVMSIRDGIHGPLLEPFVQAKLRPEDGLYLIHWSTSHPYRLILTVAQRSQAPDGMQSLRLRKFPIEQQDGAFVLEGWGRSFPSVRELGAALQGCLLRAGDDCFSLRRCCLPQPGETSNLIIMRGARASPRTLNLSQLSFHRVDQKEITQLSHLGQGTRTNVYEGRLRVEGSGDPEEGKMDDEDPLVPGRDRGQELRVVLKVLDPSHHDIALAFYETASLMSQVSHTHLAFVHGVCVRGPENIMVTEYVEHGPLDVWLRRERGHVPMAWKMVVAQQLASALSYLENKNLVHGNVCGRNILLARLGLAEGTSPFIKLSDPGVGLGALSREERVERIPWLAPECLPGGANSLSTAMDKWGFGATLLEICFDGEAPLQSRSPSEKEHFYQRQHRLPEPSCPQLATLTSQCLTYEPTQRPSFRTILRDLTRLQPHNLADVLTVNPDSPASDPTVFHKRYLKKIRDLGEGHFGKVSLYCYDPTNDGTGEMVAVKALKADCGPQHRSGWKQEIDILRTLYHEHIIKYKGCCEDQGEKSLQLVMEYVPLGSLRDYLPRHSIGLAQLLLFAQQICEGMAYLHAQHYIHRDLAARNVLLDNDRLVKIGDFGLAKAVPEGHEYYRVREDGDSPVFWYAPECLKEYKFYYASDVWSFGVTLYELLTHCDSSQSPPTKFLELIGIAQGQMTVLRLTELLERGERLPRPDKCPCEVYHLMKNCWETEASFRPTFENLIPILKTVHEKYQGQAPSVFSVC
JAK1, sequence (P23458 whole entry, species assumed): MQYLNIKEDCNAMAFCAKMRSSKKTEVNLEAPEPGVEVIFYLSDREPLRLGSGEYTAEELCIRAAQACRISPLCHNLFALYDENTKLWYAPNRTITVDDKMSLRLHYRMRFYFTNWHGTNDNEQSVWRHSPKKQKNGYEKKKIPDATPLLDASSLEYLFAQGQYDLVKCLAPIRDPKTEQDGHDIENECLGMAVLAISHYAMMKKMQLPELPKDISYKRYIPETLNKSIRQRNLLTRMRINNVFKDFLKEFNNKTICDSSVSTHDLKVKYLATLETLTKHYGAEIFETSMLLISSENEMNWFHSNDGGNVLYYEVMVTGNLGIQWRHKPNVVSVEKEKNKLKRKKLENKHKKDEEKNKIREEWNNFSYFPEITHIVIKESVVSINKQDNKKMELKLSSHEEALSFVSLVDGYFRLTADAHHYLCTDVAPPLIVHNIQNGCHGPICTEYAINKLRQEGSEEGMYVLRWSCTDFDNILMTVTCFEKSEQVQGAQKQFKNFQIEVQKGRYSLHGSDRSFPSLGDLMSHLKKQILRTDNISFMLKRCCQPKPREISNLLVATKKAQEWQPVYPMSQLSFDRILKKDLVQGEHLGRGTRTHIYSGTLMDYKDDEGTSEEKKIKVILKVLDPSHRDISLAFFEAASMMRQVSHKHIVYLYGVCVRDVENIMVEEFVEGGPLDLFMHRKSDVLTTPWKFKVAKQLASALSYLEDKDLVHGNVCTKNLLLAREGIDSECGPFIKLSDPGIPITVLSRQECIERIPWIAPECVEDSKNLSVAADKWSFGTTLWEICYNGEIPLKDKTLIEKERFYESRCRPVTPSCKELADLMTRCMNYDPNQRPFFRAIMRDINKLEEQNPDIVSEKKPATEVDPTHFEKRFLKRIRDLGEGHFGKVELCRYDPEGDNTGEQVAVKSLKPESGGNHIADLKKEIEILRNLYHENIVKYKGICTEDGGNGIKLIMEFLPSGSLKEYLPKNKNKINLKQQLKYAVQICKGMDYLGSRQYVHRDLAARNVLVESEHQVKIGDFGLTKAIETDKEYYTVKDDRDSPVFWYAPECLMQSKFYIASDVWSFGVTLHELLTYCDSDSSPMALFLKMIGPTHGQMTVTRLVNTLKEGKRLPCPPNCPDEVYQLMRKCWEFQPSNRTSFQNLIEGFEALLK

`C=C(F)C(=O)N1Cc2c(-c3ccnc4[nH]ccc34)cnn2C[C@H]1CCS(C)(=O)=O` [YZ001075] gave an IC50 (JAK3 kinase; [5]) of 1.2 nM and an IC50 [1] of 31.7 nM.
`C=CC(=O)N1CCc2[nH]nc(-c3ccnc4[nH]ccc34)c2C1` [YZ001065] was tested, and the IC50 (JAK3 kinase; [5]) was 0.7 nM, the “immunosuppressive effect on SRBC-induced delayed type hypersensitivity (right paw thickness)” value (SRBC mouse model) was “significant immunosuppressive effects” and the IC50 [1] was 26.3 nM.
With `C=CC(=O)N1C[C@H](Nc2ncnc3[nH]ccc23)CC[C@@H]1C` [PF-06651600, reference compound] the “swelling of the paws” value [2] was “improved to varying degrees”, the arthritis scores [2] was “significantly reduced” and the IC50 [1] was 85 nM.
`C=CC(=O)N1CCc2c(c(-c3ccnc4[nH]ccc34)nn2C)C1` [YZ001052] was tested, and the “TNF-α level in the alveolar lavage fluid” value ([3]; ELISA, FIG. 4) was “good inhibitory effect”, the “number of white blood cells (inflammatory cell infiltrates) in the alveolar lavage fluid” value ([3]; FIG. 5) was “significantly reduce” and the “immunosuppressive effect on SRBC-induced delayed type hypersensitivity (right paw thickness)” value (SRBC mouse model) was “significant immunosuppressive effects”. For the same compound, the “length of the colorectum” value [4] was “significantly increased”, the “swelling of the paws” value [2] was “improved to varying degrees” and the arthritis scores [2] was “significantly reduced”.
`C[C@@H]1Cn2ncc(-c3ccnc4[nH]ccc34)c2CN1C(=O)/C=C/CN(C)C` [YZ001005] gave an IC50 (JAK3 kinase; selectivity table, Example 137) of 16 nM, an IC50 (JAK2) greater than 10000 nM and an IC50 (JAK1) greater than 10000 nM. For the same compound, the IC50 (TYK2) was greater than 10000 nM.
`C=CC(=O)N1Cc2c(-c3ccnc4[nH]ccc34)cnn2C[C@H]1C` [YZ001001] showed an IC50 (JAK2) greater than 10000 nM, an IC50 (JAK1) greater than 10000 nM and an IC50 (TYK2) greater than 10000 nM.
